In patent EP1493438A1, “Vanilloid receptor (VR) inhibitors for treatment of Human Immunodeficiency Virus (HIV)-mediated pain states” (Bayer HealthCare AG, priority 2003, dated 2005):
Blank lines part the entries; values can stand above or below the compound they belong to.

Legend:
rat DRG neurons = experiment: Inhibition of gp120-mediated CGRP-release from rat DRG neurons (Method B); details: for IC50: Rattus norvegicus, DRG neuron; for inhibition of gp120-mediated CGRP release from DRG neurons: result in words
HIV patients = details: cited from earlier work; for efficacy in clinical trails investigating HIV-mediated neuropathic pain: Shlay et al. (1998), Kieburtz et al. (1998)
rat sciatic nerve [1] = experiment: gp120-mediated CGRP release from rat sciatic nerve in the presence or absence of VR1 inhibitors (Method C); details: for CGRP release: gp120 250 pg/ml in the presence of CAZ (1 µM) or Cpd. 1 (20 nM); for block of CGRP release from gp120-stimulated sciatic nerve: result in words
rat sciatic nerve [2] = experiment: CGRP-release from isolated rat sciatic nerve upon stimulation (Method C); details: Capsaicin 100 nM, t0-t5 stimulation period

Structure (SMILES): N#CC(=C(/N)Sc1ccccc1N)/C(C#N)=C(\N)Sc1ccccc1N [Compound U0126]
- IC50 (rat DRG neurons): 1.9 nM
- inhibition of gp120-mediated CGRP release from DRG neurons (rat DRG neurons): completely inhibited

Structure (SMILES): C[S+]([O-])c1ccc(-c2nc(-c3ccncc3)c(-c3ccc(F)cc3)[nH]2)cc1 (centres unmarked) [SB203580]
- inhibition of gp120-mediated CGRP release from DRG neurons (rat DRG neurons): completely inhibited

- IC50 (rat DRG neurons): 43000 nM
Structure (SMILES): CC(Cc1ccc(O)c(O)c1)C(C)Cc1ccc(O)c(O)c1 (centres unmarked) [NGDA, Nordihydroguaiaretic Acid]
- inhibition of gp120-mediated CGRP release from DRG neurons (rat DRG neurons): completely inhibited

Structure (SMILES): CN(C)CCC=C1c2ccccc2CCc2ccccc21 [Amitriptyline]
- efficacy in clinical trails investigating HIV-mediated neuropathic pain (HIV patients): completely ineffective

Structure (SMILES): CC(C)Cc1ccc(C(C)C(=O)O)cc1 (centres unmarked) [Ibuprofen]
- inhibition of gp120-mediated CGRP release from DRG neurons (rat DRG neurons): can not inhibit

Structure (SMILES): Cc1cccc(C)c1OCC(C)N (centres unmarked) [Mexiletine]
- efficacy in clinical trails investigating HIV-mediated neuropathic pain (HIV patients): completely ineffective

Structure (SMILES): O=C(NCc1ccc(OC(F)(F)F)cc1)Nc1cccc2c1CC(O)CC2 (centres unmarked) [Cpd. Example 1, N-(7-hydroxy-5,6,7,8-tetrahydro-naphthalen-1-yl)-N'-(4-trifluoromethoxy-benzyl)-urea]
- IC50 (rat DRG neurons): 0.44 nM
- inhibition of gp120-mediated CGRP release from DRG neurons (rat DRG neurons): completely inhibited
- CGRP release (rat sciatic nerve [1]; time 0 min): 0
- CGRP release (rat sciatic nerve [1]; time 5 min): 0
- CGRP release (rat sciatic nerve [1]; time 10 min): 0
- CGRP release (rat sciatic nerve [1]; time 20 min): 0
- CGRP release (rat sciatic nerve [1]; time -5 min): 0
- block of CGRP release from gp120-stimulated sciatic nerve (rat sciatic nerve [1]): capable to block CGRP release

- IC50 (rat DRG neurons): 9.36 nM
Structure (SMILES): COc1cccc(-c2cc(=O)c3ccccc3o2)c1N [PD98059]
- inhibition of gp120-mediated CGRP release from DRG neurons (rat DRG neurons): completely inhibited

Structure (SMILES): CCN(CC)CCCC(C)Nc1c2ccc(Cl)cc2nc2ccc(OC)cc12 (centres unmarked) [QN, Quinacrine]
- IC50 (rat DRG neurons): 1530 nM
- inhibition of gp120-mediated CGRP release from DRG neurons (rat DRG neurons): completely inhibited

Structure (SMILES): Oc1cc2c(cc1O)CN(C(=S)NCCc1ccc(Cl)cc1)CCC2 [CAZ, Capsazepin]
- IC50 (rat DRG neurons): 109 nM
- inhibition of gp120-mediated CGRP release from DRG neurons (rat DRG neurons): completely inhibited
- block of CGRP release from gp120-stimulated sciatic nerve (rat sciatic nerve [1]): capable to block CGRP release

Structure (SMILES): COc1cc(CNC(=O)CCCC/C=C/C(C)C)ccc1O [CAPS, Capsaicin]
- CGRP-release (rat sciatic nerve [2]; time 0 min): 0.05923 ng/mg ng CGRP/mg nerve dry weight
- CGRP-release (rat sciatic nerve [2]; time 5 min): 5.9+/-1.3 ng/mg ng CGRP/mg nerve dry weight
- CGRP-release (rat sciatic nerve [2]; time 10 min): 5.3+/-0.2 ng/mg ng CGRP/mg nerve dry weight
- CGRP-release (rat sciatic nerve [2]; time 20 min): 4.0+/-0.1 ng/mg ng CGRP/mg nerve dry weight
- CGRP-release (rat sciatic nerve [2]; time -5 min): 0 ng CGRP/mg nerve dry weight
- pain in HIV patients with chronic DSP (HIV patients; randomized, double-masked clinical trail, Paice et al. (2000)): strongly increased pain
